What was measured:
[1] = cited from earlier work
[2] = Preliminary patient trial: s.c./i.v. infusion versus intestinal Duodopa, plasma levodopa and carbidopa; assay type: in vivo, patients with Parkinson's disease
Excerpt: The trial results are from 3 randomly selected patients of a larger study, and for each patient subcutaneous, intravenous injection and intestinal administration was compared.
The study was a prospective, randomized, 3-period cross-over, open-label multicentre trial comparing intravenous and subcutaneous infusion of the preferred aqueous pharmaceutical solution with intestinal Duodopa (LCIG) performed according to the principles of Good Clinical Practice (GCP). The trial included patients with Parkinson's disease who are on Duodopa treatment because of severe on-off manifestation when on oral levodopa. During one treatment visit, patients receive Duodopa at optimal dosage for 16 hours, during another treatment visit, the patients received an i.v. infusion of the preferred aqueous pharmaceutical solution at a concentration estimated to yield corresponding serum levels of levodopa for the same duration, and at a third treatment visit the patients received the corresponding amount of levodopa but in the form of s.c. infusion. Blood samples were drawn according to a set schedule during the treatment visits for up to 24 h. […]
Levodopa and carbidopa in patient's plasma was analysed by ultra-performance liquid chromatography-tandem mass spectrometry (UPLC-MS/MS) according to the principles of Good Laboratory Practice (GLP).

N[C@@H](Cc1ccc(O)c(O)c1)C(=O)O [levodopa]
concentration above which levodopa precipitates ([1]; pH values acceptable for continuous parenteral administration): 500 to 1000 µg/mL | levodopa concentration obtainable ([1]; pH<3 or pH>9): exceeding 5 mg/ml | levodopa concentration in the blood required for therapeutic effect ([2]; patient no 101, severe PD): 5,000-6,000 ng/mL | levodopa concentration in the blood required for therapeutic effect ([2]; patient no 103, moderate or mild PD): 1,600-1,700 ng/mL
